Like-named read-outs stand apart in the source and are kept apart here.
Experiment: Phase I study CXR1002-001: plasma pharmacokinetics (LC-MS/MS)
Format: in vivo, human
Details: for concentration at 696 h: 696 hr (Day 29)
From the text: PK samples, PD (fasting) samples, blood glucose, and blood triglyceride samples, were taken over a 6-week period.
Dose limiting toxicity (DLT) will be based on the toxicity assessments over the first 3-week period of the repeat dosing schedule. PK samples (single blood sample) were taken on the following basis: • Every 6 weeks during the repeat dosing phase • If dosing is interrupted or stopped, samples will be taken at intervals according to patient convenience • PK sampling for safety evaluation may take place at any time, as clinically indicated
Plasma samples were collected after the single 50 mg dose at the following timepoints: Pre-dose, and then 0.25, 0.5, 0.75, 1, 1.5, 2, 3, 4, 6, 24, 48, and 72 hours after administration and then once weekly at weeks 2, 3, 4, 5, and 6 (days 8, 15, 22, 29, and 36). For patients treated with the weekly repeat dose, plasma samples were collected at the following timepoints: Pre-dose and then 2, 3, 4 and 24 hours after administration for a total of 6 weeks. Thereafter a single sample was collected every 6 weeks for monitoring of exposure during long term treatment. Plasma samples were processed at site and stored at −80° C. prior to batch shipment to the analytical laboratory.

[1] = human, plasma, oral, 50 mg, Patient 001 Dose 50 mg
[2] = human, plasma, oral, 50 mg, Patient 001 Dose 50 mg, read-out: Concentration
[3] = human, plasma, oral, 50 mg, Patient 002 Dose 50 mg
[4] = human, plasma, oral, 50 mg, Patient 002 Dose 50 mg, read-out: Concentration
[5] = human, plasma, oral, 50 mg, Patient 003 Dose 50 mg

With `O=C(O)C(F)(F)C(F)(F)C(F)(F)C(F)(F)C(F)(F)C(F)(F)C(F)(F)F` [CXR1002] the “maximal plasma level recorded” value (1200 mg weekly dose over a 5 week period, one patient) was 1530 µM, the Concentration (Patient 032, 950 mg, person, plasma, 0 hr (pre-dose)) was “BLQ” and the oral bioavailability (clinical trials) was “orally bioavailable”. The concentration at 168 h (female, human, plasma, oral, Female, plasma, 168 hr (Day 8), read-out: Concentration) was 146 µM, the concentration at 170 h (female, human, plasma, oral, Female, plasma, 170 hr, read-out: Concentration) was 276 µM and the concentration at 171 h (female, human, plasma, oral, Female, plasma, 171 hr, read-out: Concentration) was 253 µM. For the same compound, the concentration at 172 h (female, human, plasma, oral, Female, plasma, 172 hr, read-out: Concentration) was 248 µM, the concentration at 192 h (female, human, plasma, oral, Female, plasma, 192 hr (Day 9), read-out: Concentration) was 246 µM and the concentration at 504 h (female, human, plasma, oral, Female, plasma, 504 hr (Day 22), read-out: Concentration) was 333 µM. The concentration at 506 h (female, human, plasma, oral, Female, plasma, 506 hr, read-out: Concentration) was 427 µM, the concentration at 507 h (female, human, plasma, oral, Female, plasma, 507 hr, read-out: Concentration) was 412 µM and the concentration at 528 h (female, human, plasma, oral, Female, plasma, 528 hr (Day 23), read-out: Concentration) was 405 µM. It also gave a concentration at 840 h (female, human, plasma, oral, Female, plasma, 840 hr (Day 36), read-out: Concentration) of 434 µM, a concentration at 842 h (female, human, plasma, oral, Female, plasma, 842 hr, read-out: Concentration) of 461 µM and a concentration at 843 h (female, human, plasma, oral, Female, plasma, 843 hr, read-out: Concentration) of 457 µM. For the same compound, the concentration at 844 h (female, human, plasma, oral, Female, plasma, 844 hr, read-out: Concentration) was 482 µM, the concentration at 864 h (female, human, plasma, oral, Female, plasma, 864 hr (Day 37), read-out: Concentration) was 526 µM and the concentration at 0 h [1] was 0 µM. It also gave a concentration at 0.25 h [1] of 0.35 µM, a concentration at 0.5 hr (human, plasma, oral, 50 mg, Patient 001 Dose 50 mg, 0.5 hr) of 1.11 µM and a concentration at 0.75 hr (human, plasma, oral, 50 mg, Patient 001 Dose 50 mg, 0.75 hr) of 9.17 µM. For the same compound, the concentration at 1 hr (human, plasma, oral, 50 mg, Patient 001 Dose 50 mg, 1 hr) was 14.4 µM, the concentration at 1.5 h [1] was 25.7 µM and the concentration at 2 h (human, plasma, oral, 50 mg, Patient 001 Dose 50 mg, 2 hr, read-out: Concentration) was 22.5 µM. It also gave a concentration at 3 h [2] of 20.8 µM, a concentration at 6 h [1] of 14.7 µM and a concentration at 24 h [2] of 13.8 µM. It also gave a concentration at 48 h [1] of 12.8 µM, a concentration at 72 hr (human, plasma, oral, 50 mg, Patient 001 Dose 50 mg, 72 hr) of 9.7 µM and a concentration at 192 hr (human, plasma, oral, 50 mg, Patient 001 Dose 50 mg, 192 hr (Day 8), read-out: Concentration) of 8.54 µM. For the same compound, the concentration at 360 hr (human, plasma, oral, 50 mg, Patient 001 Dose 50 mg, 360 hr (Day 15), read-out: Concentration) was 8.63 µM, the concentration at 528 h (human, plasma, oral, 50 mg, Patient 001 Dose 50 mg, 528 hr (Day 22), read-out: Concentration) was 11.6 µM and the concentration at 696 h [2] was 10.2 µM. The concentration at 864 h (human, plasma, oral, 50 mg, Patient 001 Dose 50 mg, 864 hr (Day 36), read-out: Concentration) was 8.89 µM, the concentration at 144 day (human, plasma, oral, 50 mg, Patient 001 Dose 50 mg, Day 144) was 226 µM and the concentration at 179 day (human, plasma, oral, 50 mg, Patient 001 Dose 50 mg, Day 179) was 250 µM. For the same compound, the concentration at 227 day (human, plasma, oral, 50 mg, Patient 001 Dose 50 mg, Day 227) was 308 µM, the concentration at 268 day (human, plasma, oral, 50 mg, Patient 001 Dose 50 mg, Day 268) was 268 µM and the concentration at 0 h [3] was 0 µM. The concentration at 0.25 h [3] was 3.06 µM, the concentration at 0.5 h (human, plasma, oral, 50 mg, Patient 002 Dose 50 mg, 0.5 hr) was 7.62 µM and the concentration at 0.75 h (human, plasma, oral, 50 mg, Patient 002 Dose 50 mg, 0.75 hr) was 8.39 µM. The concentration at 1 h (human, plasma, oral, 50 mg, Patient 002 Dose 50 mg, 1 hr) was 8.55 µM, the concentration at 1.5 h [3] was 29.8 µM and the concentration at 3 h [4] was 22.8 µM. It also gave a concentration at 4 h (human, plasma, oral, 50 mg, Patient 002 Dose 50 mg, 4 hr, read-out: Concentration) of 14.5 µM, a concentration at 6 h [3] of 17.5 µM and a concentration at 24 h [4] of 14.3 µM. For the same compound, the concentration at 48 h [3] was 13.3 µM, the concentration at 72 h (human, plasma, oral, 50 mg, Patient 002 Dose 50 mg, 72 hr) was 15.6 µM and the concentration at 192 h (human, plasma, oral, 50 mg, Patient 002 Dose 50 mg, 192 hr (Day 8), read-out: Concentration) was 17.2 µM. The concentration at 360 h (human, plasma, oral, 50 mg, Patient 002 Dose 50 mg, 360 hr (Day 15), read-out: Concentration) was 18.6 µM, the concentration at 528 h (human, plasma, oral, 50 mg, Patient 002 Dose 50 mg, 528 hr (Day 22), read-out: Concentration) was 21.5 µM and the concentration at 696 h [4] was 21 µM. It also gave a concentration at 864 h (human, plasma, oral, 50 mg, Patient 002 Dose 50 mg, 864 hr (Day 36), read-out: Concentration) of 20.1 µM, a concentration at 0 h [5] of 0.14 µM and a concentration at 0.25 h [5] of 1.08 µM.
